Structures can show the parent of a compound that is named as a salt.
Experiment: Temperature stress experiments: thermal stability of the solid forms, purity by HPLC
Assay type: physicochemical
Conditions: for HPLC Purity Start: solid form before temperature stress; for HPLC Purity: solid
Source text: Temperature Stress Experiments For the investigation of the thermal stability, the solid forms A, B and M are heated in open test tubes (l: 110 mm, d: 5 mm) or in test tubes closed by means of a glass stamp in an oil bath at temperatures and for a period of time as given in the Table. Subsequently, the purity of the remaining products is investigated by means of HPLC methods (column: LunaRP18 (25×0.46 cm); mobile phase: acetonitrile:methanol: 0.02M aq. ammonium acetate:triethylamine (55:5:40:0.05). (s): test tube with glass stamp

C=CC(=O)Nc1cc2c(Nc3ccc(F)c(Cl)c3)ncnc2cc1OCCCN1CCOCC1 [Form B, N-[4-(3-chloro-4-fluorophenylamino)-7-(3-morpholin-4-ylpropoxy)-quinazolin-6-yl]-acrylamide Dihydrochloride Form B]
HPLC Purity Start (listed as B): 99.77 rel %
HPLC Purity (16 hr, 100° C., then 8 hr, 150° C., (s): test tube with glass stamp, listed as B): 75.28 (s) rel %
HPLC Purity (16 hr, 100° C., then 8 hr, 150° C., open test tube, listed as B): 75.32 rel %
HPLC Purity (7 d, 80° C., (s): test tube with glass stamp, listed as B): 84.40 (s) rel %
HPLC Purity (7 d, 80° C., open test tube, listed as B): 89.39 rel %

C=CC(=O)Nc1cc2c(Nc3ccc(F)c(Cl)c3)ncnc2cc1OCCCN1CCOCC1 [Form A, N-[4-(3-chloro-4-fluorophenylamino)-7-(3-morpholin-4-ylpropoxy)-quinazolin-6-yl]-acrylamide Dihydrochloride Form A]
HPLC Purity Start (listed as A): 99.28 rel %
HPLC Purity (16 hr, 100° C., then 8 hr, 150° C., (s): test tube with glass stamp, listed as A): 23.45 (s) rel %
HPLC Purity (16 hr, 100° C., then 8 hr, 150° C., open test tube, listed as A): 25.28 rel %
HPLC Purity (7 d, 80° C., (s): test tube with glass stamp, listed as A): 99.02 (s) rel %
HPLC Purity (7 d, 80° C., open test tube, listed as A): 97.51 rel %

C=CC(=O)Nc1cc2c(Nc3ccc(F)c(Cl)c3)ncnc2cc1OCCCN1CCOCC1 [Form M, N-[4-(3-chloro-4-fluorophenylamino)-7-(3-morpholin-4-ylpropoxy)-quinazolin-6-yl]-acrylamide Dihydrochloride Form M]
stability towards the heating of the solid substance (heating at 80° C. or 150° C., in comparison to the forms A or B): more stable form
HPLC Purity Start (listed as M): 99.49 rel %
HPLC Purity (16 hr, 100° C., then 8 hr, 150° C., (s): test tube with glass stamp, listed as M): 99.43 (s) rel %
HPLC Purity (16 hr, 100° C., then 8 hr, 150° C., open test tube, listed as M): 99.43 rel %
HPLC Purity (8 d, 80° C., (s): test tube with glass stamp): 99.61 (s) rel %
HPLC Purity (8 d, 80° C., open test tube): 99.62 rel %
